Measured values published in patent publication US9029396B2, “Substituted indole derivatives” (Novartis AG, priority 2011, dated 2015).
Each block holds one compound with its values, some of them ahead of it.

Legend:
PKC-alpha = target: T1, PKC-alpha (Homo sapiens, UniProt P17252); assay: Protein kinase C alpha assay (Caliper mobility shift); assay type: biochemical; conditions: full length human recombinant enzyme, 17 μM ATP; read-out: PKCα (IC50 in nM)
T1 construct: Both enzymes were full length human recombinant protein expressed in insect cells; purchased Invitrogen AG, Basel, Switzerland; host or cells: insect cells
Protocol: (§1) The compounds of the invention were tested for their activity on different PKC isotypes according to the following method. All assays were performed in 384 well microtiter plates. Each assay plate contained 8-point serial dilutions for 40 test compounds, as well as two 16-point serial dilutions of staurosporine as reference compound, plus 16 high- and 16 low controls. Liquid handling and incubation steps were done on a automated workstation equipped with a Innovadyne Nanodrop Express.
(§2) The assay plates were prepared by addition of 50 nL per well of compound solution in 90% DMSO. The kinase reactions were started by stepwise addition of 4.5 μl per well of a 2× peptide/ATP-solution and 4.5 μl per well of a 2× enzyme solution. The final concentration of reagents during kinase reaction were: 50 mM HEPES, pH 7.5, 1 mM DTT, 0.02% Tween20, 0.02% BSA, 0.6% DMSO, 10 mM beta-glycerophosphate, and 10 μM sodium orthovanadate. The peptide substrate used in the PKC-alpha and PKC-theta assays was Dy495-X5-ME-Mpr-RFARKGSLRQKNV-COOH. […]
(§3) Plates with terminated kinase reactions were transferred to the Caliper LC3000 workstations for reading. Phosphorylated and unphosphorylated peptides were separated using the Caliper microfluidic mobility shift technology and Kinase activities were calculated from the amounts of formed phospho-peptide.

PKC-theta = target: T2, PKC-theta (Homo sapiens, UniProt Q04759); assay: Protein kinase C theta assay (Caliper mobility shift); assay type: biochemical; conditions: full length human recombinant enzyme, 70 μM ATP; read-out: PKCθ (IC50 in nM)
T2 construct: Both enzymes were full length human recombinant protein expressed in insect cells; purchased Invitrogen AG, Basel, Switzerland; host or cells: insect cells
T2 sequence (Q04759 whole entry): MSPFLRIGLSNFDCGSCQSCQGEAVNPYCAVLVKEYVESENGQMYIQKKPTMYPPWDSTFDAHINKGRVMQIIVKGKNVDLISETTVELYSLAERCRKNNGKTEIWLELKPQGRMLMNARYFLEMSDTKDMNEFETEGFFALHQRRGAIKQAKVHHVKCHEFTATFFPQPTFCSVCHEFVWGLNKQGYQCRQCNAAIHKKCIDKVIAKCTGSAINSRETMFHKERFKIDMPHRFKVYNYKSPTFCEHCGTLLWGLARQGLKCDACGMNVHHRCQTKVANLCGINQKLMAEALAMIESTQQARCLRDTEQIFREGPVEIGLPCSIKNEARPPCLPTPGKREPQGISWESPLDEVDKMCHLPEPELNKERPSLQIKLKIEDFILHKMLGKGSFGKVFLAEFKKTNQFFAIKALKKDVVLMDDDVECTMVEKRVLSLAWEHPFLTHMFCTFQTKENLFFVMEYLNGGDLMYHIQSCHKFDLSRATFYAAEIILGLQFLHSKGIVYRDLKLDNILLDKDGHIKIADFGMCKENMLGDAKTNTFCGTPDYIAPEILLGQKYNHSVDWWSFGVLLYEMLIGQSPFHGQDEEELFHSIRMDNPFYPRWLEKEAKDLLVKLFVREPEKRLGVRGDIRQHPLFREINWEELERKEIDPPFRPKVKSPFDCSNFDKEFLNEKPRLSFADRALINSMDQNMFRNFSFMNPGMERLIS
Protocol: as §1, §2, §3

[1] = Dog pharmacokinetics after oral administration of compound of example No. 1; assay type: in vivo, Beagle dogs
Protocol: A single dose of the compound of example 1 (3.0 mg/kg) was administered p.o. to 3 male Beagle dogs. Compound 1 was dosed as an aqueous suspension of the crystalline monohydrate form in Methylcellulose (0.5%): Tween 80 (1%) (90:10). Blood was taken in regular intervals by venipuncture, and the samples were analyzed for a period of up to 24 hours. The compounds of the examples 1, 2, and 3 were quantitatively assessed over time, and the results are tabulated below:
Key pharmacokinetic parameters (mean values±standard deviations (n=3) for 1, 2 and 3 after oral dosing of example No. 1.

[2] = Stability in gastric and intestinal simulated fluids at 37° C.; assay type: physicochemical
Protocol: Stability Assessments Stability of Cpd. Example No. 1 in Gastric and Intestinal Simulated Fluids at 37° C.:
Stability of compound Example No. 3
(Free form/acetate salt form) in gastric and intestinal simulated fluids at 37° C.: […]

[3] = Chemical stability of amorphous and crystalline solid; assay type: physicochemical; conditions: 1 week
[4] = dog, blood, po, male Beagle dogs, example 1 3.0 mg/kg p.o.

IC50 (PKC-alpha): 1680 nM
IC50 (PKC-theta): 462 nM
Conversion of prodrug into parent compound in blood ([1]; after administration, example 3 is main component in blood after around an hour): is converted into compound of example 3
concentration at 0.25 h [1, 4]: 3.1 nM
concentration at 0.5 h [1, 4]: 1.1 nM
Amount in Area % of compound example No. 1 ([2]; FaSSIF pH 6.5, 37° C., 0 hours): 95.1 Area %
Amount in Area % of compound example No. 1 ([2]; FaSSIF pH 6.5, 37° C., 1 hours): 93.8 Area %
Amount in Area % of compound example No. 1 ([2]; FaSSIF pH 6.5, 37° C., 2.5 hours): 92.3 Area %
Amount in Area % of compound example No. 1 ([2]; FaSSIF pH 6.5, 37° C., 4.2 hours): 90.5 Area %
Amount in Area % of compound example No. 1 ([2]; FaSSIF pH 6.5, 37° C., 7 hours): 87.7 Area %
Amount in Area % of compound example No. 1 ([2]; FeSSIF pH 5.8, 37° C., 0 hours): 95.0 Area %
Amount in Area % of compound example No. 1 ([2]; FeSSIF pH 5.8, 37° C., 1 hours): 94.9 Area %
Amount in Area % of compound example No. 1 ([2]; FeSSIF pH 5.8, 37° C., 2.5 hours): 94.8 Area %
Amount in Area % of compound example No. 1 ([2]; FeSSIF pH 5.8, 37° C., 4.2 hours): 94.8 Area %
Amount in Area % of compound example No. 1 ([2]; FeSSIF pH 5.8, 37° C., 7 hours): 94.8 Area %
Amount in Area % of compound example No. 1 ([2]; SGF pH 2, 37° C., 0 hours): 95.9 Area %
Amount in Area % of compound example No. 1 ([2]; SGF pH 2, 37° C., 1 hours): 95.5 Area %
Amount in Area % of compound example No. 1 ([2]; SGF pH 2, 37° C., 2.5 hours): 95.3 Area %
Amount in Area % of compound example No. 1 ([2]; SGF pH 2, 37° C., 4.2 hours): 95.6 Area %
Amount in Area % of compound example No. 1 ([2]; SGF pH 2, 37° C., 7 hours): 95.6 Area %
Purity after exposure ([3]; Amorphous, initial purity 98.5 %, 50 ° C.): 95.8%
Purity after exposure ([3]; Amorphous, initial purity 98.5 %, 80 ° C.): 89.7%
Purity after exposure ([3]; Crystalline mono-hydrate, initial purity 100 %, 50 ° C.): 100%
Purity after exposure ([3]; Crystalline mono-hydrate, initial purity 100 %, 80 ° C.): 100%
Compound: Cc1cccc2c(C3=C(c4nc(N5CCNC6(CC6)C5)cc5ccccc45)C(=O)N(COP(=O)(O)O)C3=O)c[nH]c12 [Example 1, Phosphoric acid mono-[3-[3-(4,7-diaza-spiro[2.5]oct-7-yl)-isoquinolin-1-yl]-4-(7-methyl-1H-indol-3-yl)-2,5-dioxo-2,5-dihydro-pyrrol-1-ylmethyl]ester]

concentration at 0.083 h ([1]; dog, blood, po, male Beagle dogs, example 1 3.0 mg/kg p.o. (crystalline monohydrate suspension), 0.083 h): 10 nM
concentration at 0.25 h [1, 4]: 39.6 nM
concentration at 0.5 h [1, 4]: 31.3 nM
concentration at 0.75 h ([1]; dog, blood, po, male Beagle dogs, example 1 3.0 mg/kg p.o., 0.75 h): 19.1 nM
concentration at 1 h ([1]; dog, blood, po, male Beagle dogs, example 1 3.0 mg/kg p.o., 1 h): 6.3 nM
concentration at 2 h ([1]; dog, blood, po, male Beagle dogs, example 1 3.0 mg/kg p.o., 2 h): 7.7 nM
concentration at 3 h ([1]; dog, blood, po, male Beagle dogs, example 1 3.0 mg/kg p.o., 3 h): 1 nM
AUC d.n. ([1]; dose normalized, mean ± SD (n=3), after oral dosing of example No. 1 to dogs): low
Tmax ([1]; male, Beagle, dog, blood, 3 mg/kg, mean ± SD (n=3), after oral dosing of example No. 1 to dogs): 24 ± 6 min
Compound: Cc1cccc2c(C3=C(c4nc(N5CCNC6(CC6)C5)cc5ccccc45)C(=O)N(CO)C3=O)c[nH]c12 [Example 2, 3-[3-(4,7-Diaza-spiro[2.5]oct-7-yl)-isoquinolin-1-yl]-1-hydroxymethyl-4-(7-methyl-1H-indol-3-yl)-pyrrole-2,5-dione]
